Assay results as given in patent publication US20260285855A1, “HETEROARYL DERIVATIVES AS DDRS INHIBITORS” (CHIESI FARMACEUTICI S.P.A., priority 2023, published 2026).

Columns and labels:
DDR1 = biological target: T1, DDR1 (Homo sapiens, UniProt Q08345); experiment: LanthaScreen Europium Kinase Binding assay, DDR1; conditions: 5 nM DDR1, 20 nM Kinase Tracer 178, 1 h at rt; Ki from IC50 by Cheng-Prusoff; read-out: Ki DDR1
T1 construct: purchased Carna Biosciences
Experimental: (§1) DDR1 and DDR2 binding assays were performed using Life Technologies LanthaScreen™ Europium Kinase Binding assay. […] IC50 values were determined in GraphPad Prism 7.0 software, using 4 parameter model: log (inhibitor) vs. response. IC50 values were converted in Ki using the Cheng-Prusoff equation (Ki-IC50/(1+ [Tracer]/Kd).

DDR2 = biological target: T2, DDR2 (Homo sapiens, UniProt Q16832); experiment: LanthaScreen Europium Kinase Binding assay, DDR2; conditions: 5 nM DDR2, 10 nM Kinase Tracer 178, 1 h at rt; Ki from IC50 by Cheng-Prusoff; read-out: Ki DDR2
T2 construct: purchased Life Technologies
T2 sequence (Q16832 22-855): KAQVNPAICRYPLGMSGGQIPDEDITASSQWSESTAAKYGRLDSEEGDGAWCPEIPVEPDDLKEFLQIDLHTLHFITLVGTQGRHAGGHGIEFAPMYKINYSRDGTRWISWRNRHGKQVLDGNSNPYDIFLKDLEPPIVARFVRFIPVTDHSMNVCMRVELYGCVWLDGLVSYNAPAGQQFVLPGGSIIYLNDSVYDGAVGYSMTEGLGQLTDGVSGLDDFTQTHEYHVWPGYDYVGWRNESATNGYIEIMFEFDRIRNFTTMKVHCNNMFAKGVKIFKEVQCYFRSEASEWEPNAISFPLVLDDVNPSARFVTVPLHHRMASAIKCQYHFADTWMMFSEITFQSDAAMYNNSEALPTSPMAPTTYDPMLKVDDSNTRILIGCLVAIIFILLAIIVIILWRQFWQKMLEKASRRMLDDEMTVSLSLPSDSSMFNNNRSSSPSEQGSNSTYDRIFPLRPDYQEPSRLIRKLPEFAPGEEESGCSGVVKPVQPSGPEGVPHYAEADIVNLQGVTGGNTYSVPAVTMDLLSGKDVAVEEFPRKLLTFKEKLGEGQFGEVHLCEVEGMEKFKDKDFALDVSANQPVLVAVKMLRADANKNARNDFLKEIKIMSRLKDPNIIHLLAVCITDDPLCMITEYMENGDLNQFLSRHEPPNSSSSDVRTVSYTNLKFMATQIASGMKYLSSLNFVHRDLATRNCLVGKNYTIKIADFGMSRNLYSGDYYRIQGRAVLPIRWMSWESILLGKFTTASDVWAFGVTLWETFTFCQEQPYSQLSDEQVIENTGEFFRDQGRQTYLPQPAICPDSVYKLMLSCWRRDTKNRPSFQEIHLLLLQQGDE
Experimental: as §1

T1 sequence (Q08345 19-913): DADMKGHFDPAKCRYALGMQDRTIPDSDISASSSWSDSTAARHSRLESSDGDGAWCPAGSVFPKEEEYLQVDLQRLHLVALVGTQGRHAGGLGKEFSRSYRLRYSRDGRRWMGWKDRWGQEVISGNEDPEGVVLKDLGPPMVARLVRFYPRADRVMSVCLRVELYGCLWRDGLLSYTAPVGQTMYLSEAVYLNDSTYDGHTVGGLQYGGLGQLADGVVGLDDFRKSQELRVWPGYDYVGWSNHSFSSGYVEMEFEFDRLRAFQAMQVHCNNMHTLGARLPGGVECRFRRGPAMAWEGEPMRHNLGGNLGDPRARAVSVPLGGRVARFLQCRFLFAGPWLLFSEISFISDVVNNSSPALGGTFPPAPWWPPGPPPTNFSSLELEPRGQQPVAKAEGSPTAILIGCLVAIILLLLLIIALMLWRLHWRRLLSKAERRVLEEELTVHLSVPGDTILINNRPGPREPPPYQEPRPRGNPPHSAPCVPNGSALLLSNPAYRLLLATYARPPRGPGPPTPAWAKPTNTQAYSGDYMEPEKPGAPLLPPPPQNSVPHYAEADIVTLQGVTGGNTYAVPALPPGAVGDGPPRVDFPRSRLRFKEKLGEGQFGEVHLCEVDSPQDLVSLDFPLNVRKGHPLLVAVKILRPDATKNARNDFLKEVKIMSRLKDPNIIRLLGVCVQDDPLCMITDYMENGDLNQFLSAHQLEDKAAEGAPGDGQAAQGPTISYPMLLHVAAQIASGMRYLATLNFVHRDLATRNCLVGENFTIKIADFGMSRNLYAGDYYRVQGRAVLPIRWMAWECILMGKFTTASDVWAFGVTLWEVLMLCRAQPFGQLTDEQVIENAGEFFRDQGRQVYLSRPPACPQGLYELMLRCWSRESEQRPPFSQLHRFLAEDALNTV

| Ki (DDR1) [nM] | Ki (DDR2) [nM] | SMILES |
| --- | --- | --- |
| < 5 | 5 to 25 | COc1cc(NC(=O)N(C)C2CC3(C2)CN(C(=O)c2cnn4ccn(C)c24)C3)cc(C(F)(F)F)c1 [Example 287, 3-(3-methoxy-5-(trifluoromethyl)phenyl)-1-methyl-1-(2-(1-methyl-1H-imidazo[1,2-b]pyrazole-7-carbonyl)-2-azaspiro[3.3]heptan-6-yl)urea] |
| < 5 | 5 to 25 | CCOc1ccc(C(F)(F)F)cc1NC(=O)N(C)C1CC2(C1)CN(C(=O)c1cnn3ccn(C)c13)C2 [Example 288, 3-(2-ethoxy-5-(trifluoromethyl)phenyl)-1-methyl-1-(2-(1-methyl-1H-imidazo[1,2-b]pyrazole-7-carbonyl)-2-azaspiro[3.3]heptan-6-yl)urea] |
| < 5 | 5 to 25 | Cc1nc(NC(=O)N(C)C2CC3(C2)CN(C(=O)c2cnn4ccsc24)C3)cc(C(F)(F)F)n1 [Example 289, 1-methyl-3-(2-methyl-6-(trifluoromethyl)pyrimidin-4-yl)-1-(2-(pyrazolo[5,1-b]thiazole-7-carbonyl)-2-azaspiro[3.3]heptan-6-yl)urea] |
| 5 to 25 | 25 to 100 | Cc1nc(NC(=O)N(C)C2CC3(C2)CN(C(=O)c2cnn4ccn(C)c24)C3)cc(C(F)(F)F)n1 [Example 290, 1-methyl-1-(2-(1-methyl-1H-imidazo[1,2-b]pyrazole-7-carbonyl)-2-azaspiro[3.3]heptan-6-yl)-3-(2-methyl-6-(trifluoromethyl)pyrimidin-4-yl)urea] |
| < 5 | 5 to 25 | CN(C(=O)Nc1cc(C(F)(F)F)cs1)C1CC2(C1)CN(C(=O)c1cnn3ccn(C)c13)C2 [Example 291, 1-methyl-1-(2-(1-methyl-1H-imidazo[1,2-b]pyrazole-7-carbonyl)-2-azaspiro[3.3]heptan-6-yl)-3-(4-(trifluoromethyl)thiophen-2-yl)urea] |
| < 5 | 5 to 25 | O=C(Nc1cc(C(F)(F)F)ncn1)OC1CC2(C1)CN(C(=O)c1cnn3ccsc13)C2 [Example 292, 2-(pyrazolo[5,1-b]thiazole-7-carbonyl)-2-azaspiro[3.3]heptan-6-yl(6-(trifluoromethyl)pyrimidin-4-yl)carbamate] |
| < 5 | < 5 | CC(C)(c1cc(NC(=O)OC2CC3(C2)CN(C(=O)c2cnn4ccsc24)C3)no1)C(F)(F)F [Example 293, 2-(pyrazolo[5,1-b]thiazole-7-carbonyl)-2-azaspiro[3.3]heptan-6-yl(5-(1,1,1-trifluoro-2-methylpropan-2-yl)isoxazol-3-yl)carbamate] |
| < 5 | < 5 | Cn1ccn2ncc(C(=O)N3CC4(CC(OC(=O)Nc5cc(OC(F)(F)F)ccn5)C4)C3)c12 [Example 294, 2-(1-methyl-1H-imidazo[1,2-b]pyrazole-7-carbonyl)-2-azaspiro[3.3]heptan-6-yl(4-(trifluoromethoxy)pyridin-2-yl)carbamate] |
| < 5 | < 5 | Cc1ccc(OC(F)(F)F)cc1NC(=O)OC1CC2(C1)CN(C(=O)c1cnn3ccn(C)c13)C2 [Example 295, 2-(1-methyl-1H-imidazo[1,2-b]pyrazole-7-carbonyl)-2-azaspiro[3.3]heptan-6-yl(2-methyl-5-(trifluoromethoxy)phenyl)carba-mate] |
| < 5 | 5 to 25 | Cn1ccn2ncc(C(=O)N3CC4(CC(OC(=O)Nc5cc(C(F)(F)F)ccn5)C4)C3)c12 [Example 296, 2-(1-methyl-1H-imidazo[1,2-b]pyrazole-7-carbonyl)-2-azaspiro[3.3]heptan-6-yl(4-(trifluoromethyl)pyridin-2-yl)carbamate] |
| < 5 | 5 to 25 | Cn1ccn2ncc(C(=O)N3CC4(CC(OC(=O)Nc5cc(C(F)(F)F)ncn5)C4)C3)c12 [Example 297, 2-(1-methyl-1H-imidazo[1,2-b]pyrazole-7-carbonyl)-2-azaspiro[3.3]heptan-6-yl(6-(trifluoromethyl)pyrimidin-4-yl)carbamate] |
| < 5 | < 5 | CCOc1ccc(C(F)(F)F)cc1NC(=O)NC1CC2(C1)CN(C(=O)c1cnn3ccn(C)c13)C2 [Example 298, 1-(2-ethoxy-5-(trifluoromethyl)phenyl)-3-(2-(1-methyl-1H-imidazo[1,2-b]pyrazole-7-carbonyl)-2-azaspiro[3.3]heptan-6-yl)urea] |
| < 5 | < 5 | Cn1ccn2ncc(C(=O)N3CC4(CC(OC(=O)Nc5cncc(OC(F)(F)F)c5)C4)C3)c12 [Example 299, 2-(1-methyl-1H-imidazo[1,2-b]pyrazole-7-carbonyl)-2-azaspiro[3.3]heptan-6-yl(5-(trifluoromethoxy)pyridin-3-yl)carbamate] |
| < 5 | 5 to 25 | Cc1cc(C(F)(F)F)cc(NC(=O)N(C)C2CC3(C2)CN(C(=O)c2cnn4ccn(C)c24)C3)n1 [Example 300, 1-methyl-1-(2-(1-methyl-1H-imidazo[1,2-b]pyrazole-7-carbonyl)-2-azaspiro[3.3]heptan-6-yl)-3-(6-methyl-4-(trifluoromethyl)pyridin-2-yl)urea] |
| < 5 | < 5 | [2H]C([2H])([2H])n1ccn2ncc(C(=O)N3CC4(CC(CC(=O)Nc5cc(OC(F)(F)F)ccn5)C4)C3)c12 [Example 301, 2-(2-(1-(methyl-d3)-1H-imidazo[1,2-b]pyrazole-7-carbonyl)-2-azaspiro[3.3]heptan-6-yl)-N-(4-(trifluoromethoxy)pyridin-2-yl)acetamide] |
| < 5 | < 5 | O=C(CC1CC2(C1)CN(C(=O)c1cnn3ccn(C(F)F)c13)C2)Nc1cc(OC(F)(F)F)ccn1 [Example 302, 2-(2-(1-(difluoromethyl)-1H-imidazo[1,2-b]pyrazole-7-carbonyl)-2-azaspiro[3.3]heptan-6-yl)-N-(4-(trifluoromethoxy)pyridin-2-yl)acetamide] |
| < 5 | 5 to 25 | Cc1cnc(NC(=O)N(C)C2CC3(C2)CN(C(=O)c2cnn4ccn(C)c24)C3)cc1C(F)(F)F [Example 303, 1-methyl-1-(2-(1-methyl-1H-imidazo[1,2-b]pyrazole-7-carbonyl)-2-azaspiro[3.3]heptan-6-yl)-3-(5-methyl-4-(trifluoromethyl)pyridin-2-yl)urea] |
| < 5 | 5 to 25 | O=C(Nc1cncc(C(F)(F)F)c1)NC1CC2(C1)CN(c1cnc3[nH]ncc3c1)C2 [Example 304, 1-(2-(1H-pyrazolo[3,4-b]pyridin-5-yl)-2-azaspiro[3.3]heptan-6-yl)-3-(5-(trifluoromethyl)pyridin-3-yl)urea] |
| < 5 | 5 to 25 | CN(C(=O)Nc1cc(C(F)(F)C(F)(F)F)ccn1)C1CC2(C1)CN(C(=O)c1cnn3ccn(C)c13)C2 [Example 305, 1-methyl-1-(2-(1-methyl-1H-imidazo[1,2-b]pyrazole-7-carbonyl)-2-azaspiro[3.3]heptan-6-yl)-3-(4-(perfluoroethyl)pyridin-2-yl)urea] |
| < 5 | 5 to 25 | O=C(Nc1cc(C(F)(F)F)cnn1)NC1CC2(C1)CN(c1cnc3[nH]ncc3c1)C2 [Example 306, 1-(2-(1H-pyrazolo[3,4-b]pyridin-5-yl)-2-azaspiro[3.3]heptan-6-yl)-3-(5-(trifluoromethyl)pyridazin-3-yl)urea] |
| 5 to 25 | 25 to 100 | Cc1ccc(OC(F)(F)F)cc1NC(=O)NC1CC2(C1)CN(c1cnc3[nH]ncc3c1)C2 [Example 307, 1-(2-(1H-pyrazolo[3,4-b]pyridin-5-yl)-2-azaspiro[3.3]heptan-6-yl)-3-(2-methyl-5-(trifluoromethoxy)phenyl)urea] |
